These results are taken from PubChem BioAssay AID1645864 (Buhrlage Lab, Dana-Farber Cancer Institute and Novartis …, 2021).

Active and inactive are the calls of the source.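 The calls were made as follows: active = maximal inhibition of USP17 at or above 30% in the confirmation dose-response, a value not among the printed readouts; inactive = the rest.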

In this experiment the target is Ubiquitin carboxyl-terminal hydrolase 17-like protein 5 (Homo sapiens) (UniProt A8MUK1). The experiment in a line: ubiquitin-specific protease 17 inhibitors, concentration series, biochemical, verification of primary actives (AID 1645864). The note with it: purified USP17, ubiquitin-rhodamine cleavage fluorescence, 3 h.
Chain of Ubiquitin carboxyl-terminal hydrolase 17-like protein 5 (Homo sapiens) (A8MUK1 whole entry, looked up): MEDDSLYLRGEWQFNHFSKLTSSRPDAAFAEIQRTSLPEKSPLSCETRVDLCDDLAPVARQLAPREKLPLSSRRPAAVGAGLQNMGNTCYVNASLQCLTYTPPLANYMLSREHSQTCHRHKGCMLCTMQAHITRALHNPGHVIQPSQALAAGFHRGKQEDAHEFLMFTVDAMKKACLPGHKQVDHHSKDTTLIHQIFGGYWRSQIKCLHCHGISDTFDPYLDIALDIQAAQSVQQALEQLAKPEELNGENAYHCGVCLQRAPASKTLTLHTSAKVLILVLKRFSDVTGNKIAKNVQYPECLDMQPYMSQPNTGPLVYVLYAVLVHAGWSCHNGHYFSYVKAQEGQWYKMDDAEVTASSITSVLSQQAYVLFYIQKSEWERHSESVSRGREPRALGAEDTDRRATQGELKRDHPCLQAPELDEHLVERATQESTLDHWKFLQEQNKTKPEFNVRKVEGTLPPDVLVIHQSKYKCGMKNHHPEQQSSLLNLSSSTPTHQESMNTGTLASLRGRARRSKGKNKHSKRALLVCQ
With `Cn1c(=O)c2c(ncn2CC(=O)NC2CCCc3ccccc32)n(C)c1=O` (stereo unspecified), the IC50 is > 50 µM (inactive).

On to `CCN1C(=O)c2cccnc2Sc2cc(NC(=O)c3ccc(Cl)s3)ccc21`, for which the IC50 was > 50 µM (inactive). On to `COc1cccc(OCCCn2c(C(C)NC(=O)c3ccco3)nc3ccccc32)c1` (stereo unspecified), for which the IC50 was 33.5 µM. Next, `CC(C)CC1NC(=O)C2CCCN2C1=O` (stereo unspecified): 37.5 µM; `c1csc(CCN2CCc3nc4cccnc4cc3C2)c1`: > 50 µM (inactive); `CCCCNC(=O)c1cc2cccnc2n(Cc2ccccc2)c1=O`: > 50 µM (inactive). Take `O=C(COC(=O)c1cc(Cl)ccc1O)Nc1ccc2c(c1)OCCO2`: the IC50 was 29.2 µM. `CN1C(=O)COc2cc(-c3noc(C(=O)NC4CCCCCC4)n3)ccc21`: the IC50 is 39.3 µM. Next, `CCOC(=O)c1c(C)nc2n(Cc3ccccc3)c3ccccc3n12`: 23 µM; `CCc1nc(-c2cccc(NC(=O)c3ccc(C#N)cc3F)c2)no1`: > 50 µM (inactive).

On to `O=C1c2c(O)cccc2C2(Oc3cccc4cccc(c34)O2)C2OC12` (stereo unspecified), for which the IC50 is 10.1 µM. Under `CC(C)Cc1nc2oc3c(N(C)CCO)ncnc3c2c2c1CCC2` stands > 50 µM (inactive); under `O=C1c2c(O)c(Cl)cc3c2[C@@]2(Oc4cc(Cl)c(O)c5c4[C@]3(O2)[C@@H]2O[C@@H]2C5=O)[C@@H]2O[C@H]12`, 0.411 µM. Consider `COc1ccc(/C=C/C(=O)Nc2c3c(nc4c2CCC4)CCCC3)cc1`, for which the IC50 is 15 µM. For the compound `Cc1ccc(-c2nc(Cn3nnc(-c4nc(-c5ccccn5)no4)c3C)c(C)o2)cc1`, the IC50 is > 50 µM (inactive). In the case of `CCc1ccc(C(C)NC(=O)C2CCN(c3ccc4nncn4n3)CC2)cc1` (stereo unspecified), the IC50 is > 50 µM (inactive). Take `COc1cccc(N2CCN(C(=O)C3CCN(c4nc(NC(C)=O)ns4)CC3)CC2)c1`: the IC50 was 29.2 µM. Turning to `Cc1cc(C)cc(N(CCC(=O)Nc2ccc(N3CCOCC3)cc2)S(=O)(=O)c2ccc(Cl)cc2)c1`, the IC50 was 18.2 µM. In the case of `COc1ccc2c(c1)CCc1c-2n[nH]c1C(=O)Nc1cc(C)on1`, the IC50 was 4.67 µM.

Turning to `Cc1ccc(CN2CCCn3nc(C(=O)NCc4ccccc4C)cc3C2=O)cc1`, the IC50 is 40.1 µM. Next, `CCc1ccc(NC(=O)Cc2nnc(-c3ccc4ncccc4c3)o2)cc1`: 35.5 µM; `O=C(CCSc1ccc(Cl)cc1)c1cccs1`: 17.1 µM. Next, `CC(=O)N1CCc2cc(S(=O)(=O)NCCC(=O)Nc3cccc(C)c3C)ccc21`: 23.7 µM; `COc1ccc(NC(=O)CSc2nnc(Cc3cccc4ccccc34)n2C)cc1`: > 50 µM (inactive).

As to `CCOc1ccc(-c2nc(C#N)c(N3CCN(C(=O)c4ccccc4C)CC3)o2)cc1`, the IC50 is 3.3 µM. Next, `COc1cc(-c2ccno2)ccc1S(=O)(=O)Nc1ccccc1Cl`: > 50 µM (inactive). As for `Cc1nc(-c2ccccc2F)sc1C(=O)Nc1cccnc1`, the IC50 is 35.6 µM. For `COc1ccc(CN=C2NS(=O)(=O)C(c3ccc(F)cc3)=C2C)cc1OC`, the IC50 was 18.8 µM.

With `CC1CCCN(S(=O)(=O)c2cc3cc(F)ccc3oc2=O)C1` (stereo unspecified), the IC50 was 31.1 µM.

On to `COc1ccc(N(CC(=O)Nc2cccc(F)c2)S(=O)(=O)c2ccc(OC)c(OC)c2)cc1`, for which the concentration for half-maximal inhibition (IC50) was 25.3 µM. On to `C=C(NC(=O)C(=C)NC(=O)c1csc(C2=N[C@@H]3c4csc(n4)[C@H]4NC(=O)c5csc(n5)[C@H]([C@](C)(O)[C@@H](C)O)NC(=O)C5CSC(=N5)/C(=C/C)NC(=O)C([C@@H](C)O)NC(=O)c5csc(n5)[C@]3(CC2)NC(=O)[C@H](C)NC(=O)C(=C)NC(=O)[C@H](C)NC(=O)C([C@@H](C)CC)NC2C=Cc3c(C(C)O)cc(nc3[C@H]2O)C(=O)OC4C)n1)C(N)=O` (stereo partly specified), for which the IC50 is > 50 µM (inactive).

With `Cc1ccccc1NC(=O)Nc1ccccc1OCc1cc(=O)n2cccc(C)c2n1`, the IC50 is 0.663 µM. Take `O=C(Nc1ccc(F)cc1)Nc1ccccc1OCc1cc(=O)n2ccccc2n1`: the IC50 was 28.7 µM. For `CCOC(=O)C1C(c2ccc(Br)cc2)C2(C(=O)c3ccccc3C2=O)C2C=Cc3ccccc3N12` (stereo unspecified), the IC50 was > 50 µM (inactive). On to `O=C(Oc1ccc(-c2cnc3ccccc3n2)cc1)c1ccc(F)cc1`, for which the IC50 is 6.4 µM. Turning to `COC1=CC(=O)c2c(O)c3c(c(C)c2C1=O)C[C@@]1(O)[C@H](O[C@H]2CC[C@H](O[C@H]4C[C@@](C)(O)[C@H](OC(=O)c5c(C)ccc(C)c5O)[C@H](C)O4)[C@@H](C)O2)C(=O)C(C(C)=O)=C(O)[C@@]1(O)C3=O`, the IC50 is 1.34 µM. Next, `N#C/C(=C\c1ccc(OCc2cccc(C(=O)O)c2)cc1)c1ccc(F)cc1`: 29.5 µM; `CCn1c(SCc2cccc(C)c2)nnc1-c1cnccn1`: > 50 µM (inactive). With `COC(=O)C1C(c2ccc(Cl)cc2Cl)C2(C(=O)c3ccccc3C2=O)C2C=Cc3ccccc3N12` (stereo unspecified), the IC50 is > 50 µM (inactive). Consider `Cc1ccnc(NC(=O)c2ccn(COc3ccc(Cl)cc3)n2)c1`, for which the IC50 is 24.2 µM. As for `Cc1cccc(-c2nc3n(CC(=O)Nc4ccc(Cl)cc4)c(C)cc(=O)n3n2)c1`, the IC50 was 0.335 µM. Under `CS(=O)(=O)N1CCc2cc(C(=O)Nc3ccc(Cc4ccncc4)cc3)ccc21` stands > 50 µM (inactive); under `Cc1nn(-c2ccc([N+](=O)[O-])cc2)c(C)c1-c1nc2ccccc2[nH]1`, 33 µM. For `O=c1[nH]c(C2CCN(S(=O)(=O)c3ccc(S(=O)(=O)NC4CCCCC4)cc3)CC2)nc2c1nnn2Cc1c(F)cccc1Cl`, the IC50 is 22.1 µM. For `COC(=O)COc1ccc(/C=N/NC(=O)c2ccc(CN3CCc4ccccc4C3)cc2)cc1`, the IC50 was 14.5 µM. As to `CCOc1ccc(C(=O)Cn2c(=O)n(CC3CCCO3)c(=O)c3cc(OC)c(OC)cc32)cc1Cl` (stereo unspecified), the IC50 is 17.7 µM. Consider `O=C(/C=C/c1ccc(F)cc1)N1CCC(Cc2ccccc2)CC1`, for which the IC50 is 41.8 µM.

Regarding `Cc1nn(-c2cc(N3CCOCC3)ncn2)c(C)c1CCC(=O)Nc1ccc(C(C)C)cc1`, the IC50 is 29.1 µM. `Cc1cc2nc(/C=C/c3ccccc3)n(Cc3cccc(F)c3)c2cc1C`: the IC50 was > 50 µM (inactive). For `O=C(NCc1ccco1)c1ccc2c(c1)N(Cc1cccc(F)c1)C(=O)c1ccccc1S2`, the IC50 is > 50 µM (inactive).

With `COc1ccc(CNc2nn3c(-c4cncc(OC)c4)cnc3s2)cc1`, the IC50 is 4.02 µM. For `O=C(O)c1ccc(C2Cc3c([nH]c(=O)[nH]c3=O)O2)cc1` (stereo unspecified), the IC50 was 44.9 µM. Next, `CC1=CC(=O)C(C2=C(O)C(=O)C(C)=CC2=O)=C(O)C1=O`: 3.55 µM; `COc1cccc(S(=O)(=O)N2CCn3nc(C(C)(C)C)cc3C2)c1`: 38.5 µM; `c1ccc(CCN2CCc3nc4cccnc4cc3C2)nc1`: > 50 µM (inactive).

For the compound `CC(=O)N1CCOc2cc(S(=O)(=O)N3CCCC3c3cc(C)no3)ccc21` (stereo unspecified), the IC50 is > 50 µM (inactive). With `Cc1c(C(=O)c2ccccc2)c2ccccn2c1CCc1ccccn1`, the IC50 is > 50 µM (inactive). As to `COC(=O)c1sc2ccccc2c1NC(=O)c1ccc(Br)s1`, the IC50 was 20.6 µM. On to `Cc1ccccc1NC(=O)Cn1c(N2CCOCC2)nc2cc(C)n(C)c2c1=O`, for which the IC50 was 25.8 µM. With `CC1CCCN(CCCNC(=O)c2ccc(N3CCc4ccccc43)s2)C1` (stereo unspecified), the IC50 is > 50 µM (inactive). With `CCC1=C(c2ccc(C)cc2)S(=O)(=O)NC1=NCC(=O)NC(C)c1ccccc1` (stereo unspecified), the half-inhibitory concentration (IC50) was 25.2 µM.
